Experimental data as given in US8889595B2, “Herbicides” (Syngenta Participations AG, priority 2008, dated 2014).

Legend:
Assay type in all cases: in vivo
[1] = system: Avena fatua (AVEFA); experiment: Post-emergence herbicidal activity, glasshouse; details: post-emergence spray after 8 days cultivation; rate 250 g/ha; evaluated after 13 days; 100=total damage to plant, 0=no damage to plant
Description: (§1) Seeds of a variety of test species are sown in standard soil in pots. After cultivation for one day (pre-emergence) or after 8 days cultivation (post-emergence) under controlled conditions in a glasshouse (at 24/16° C., day/night; 14 hours light; 65% humidity), the plants are sprayed with an aqueous spray solution derived from the formulation of the technical active ingredient in acetone/water (50:50) solution containing 0.5% Tween 20 (polyoxyethelyene sorbitan monolaurate, CAS RN 9005-64-5). The test plants are then grown in a glasshouse under controlled conditions in a glasshouse (at 24/16° C., day/night; 14 hours light; 65% humidity) and watered twice daily. After 13 days for pre and post-emergence, the test is evaluated (100=total damage to plant; 0=no damage to plant). Test plants: • Lolium perenne (LOLPE), Alopecurus myosuroides (ALOMY), Echinochloa crus-galli (ECHCG), Avena fatua (AVEFA)

[2] = system: Lolium perenne (LOLPE); experiment: Post-emergence herbicidal activity, glasshouse; details: post-emergence spray after 8 days cultivation; rate 250 g/ha; evaluated after 13 days; 100=total damage to plant, 0=no damage to plant
Description: as §1

[3] = system: Alopecurus myosuroides (ALOMY); experiment: Post-emergence herbicidal activity, glasshouse; details: post-emergence spray after 8 days cultivation; rate 250 g/ha; evaluated after 13 days; 100=total damage to plant, 0=no damage to plant
Description: as §1

[4] = system: Echinochloa crus-galli (ECHCG); experiment: Post-emergence herbicidal activity, glasshouse; details: post-emergence spray after 8 days cultivation; rate 250 g/ha; evaluated after 13 days; 100=total damage to plant, 0=no damage to plant
Description: as §1

[5] = system: Avena fatua (AVEFA); experiment: Pre-emergence herbicidal activity, glasshouse; details: pre-emergence spray after one day cultivation; rate 250 g/ha; evaluated after 13 days; 100=total damage to plant, 0=no damage to plant
Description: as §1

[6] = system: Lolium perenne (LOLPE); experiment: Pre-emergence herbicidal activity, glasshouse; details: pre-emergence spray after one day cultivation; rate 250 g/ha; evaluated after 13 days; 100=total damage to plant, 0=no damage to plant
Description: as §1

[7] = system: Alopecurus myosuroides (ALOMY); experiment: Pre-emergence herbicidal activity, glasshouse; details: pre-emergence spray after one day cultivation; rate 250 g/ha; evaluated after 13 days; 100=total damage to plant, 0=no damage to plant
Description: as §1

[8] = system: Echinochloa crus-galli (ECHCG); experiment: Pre-emergence herbicidal activity, glasshouse; details: pre-emergence spray after one day cultivation; rate 250 g/ha; evaluated after 13 days; 100=total damage to plant, 0=no damage to plant
Description: as §1

Compound	Post-Emergence Activity AVEFA [1]	Post-Emergence Activity LOLPE [2]	Post-Emergence Activity ALOMY [3]	Post-Emergence Activity ECHCG [4]	Pre-Emergence Activity AVEFA [5]	Pre-Emergence Activity LOLPE [6]	Pre-Emergence Activity ALOMY [7]	Pre-Emergence Activity ECHCG [8]
Cc1cc(C)c(C2C(=O)CC(Cc3ccc(C)o3)C2=O)c(C)c1 (centres unmarked) [Compound T4]	20	50	40	30	–	–	–	–
Cc1cc(C)c(C2C(=O)CC(Cc3ccoc3)C2=O)c(C)c1 (centres unmarked) [Compound T2, 4-Furan-3-ylmethyl-2-(2,4,6-trimethyl-phenyl)-cyclopentane-1,3-dione]	20	80	60	80	20	80	30	0
COC1=C(c2c(C)cc(C)cc2C)C(=O)C(C(O)c2cc(C)c(C)o2)C1 (centres unmarked) [Compound P1]	–	–	–	–	0	40	0	0
Cc1cc(C)c(C2C(=O)C/C(=C\c3ccco3)C2=O)c(C)c1 (centres unmarked) [Compound T8]	0	30	10	30	–	–	–	–
Cc1cc(C)c(C2=C(OC(=O)C(C)(C)C)C/C(=C\c3ccoc3)C2=O)c(C)c1 [Compound P2, 2,2-Dimethyl-propionic acid 4-[1-furan-3-yl-meth-(E)-ylidene]-3-oxo-2-(2,4,6-trimethyl-phenyl)-cyclopent-1-enyl ester]	–	–	–	–	0	90	0	0
Cc1cc(C)c(C2C(=O)CC(Cc3cc(C)on3)C2=O)c(C)c1 (centres unmarked) [Compound T3, 4-(5-methyl-isoxazol-3-ylmethyl)-2-(2,4,6-trimethyl-phenyl)-cyclopentane-1,3-dione]	80	90	90	80	70	100	100	80
